Laboratory results published in patent publication US5744161A, “Use of piperine as a bioavailability enhancer” (priority 1995, dated 1998).
Values joined by “and” are separate entries in the source; they are usually repeats but may differ in a detail not shown here. Identical values can stand only once. “Also recorded” adds a separate entry of the source. Like-named read-outs stand apart in the source and are kept apart here.

Assays:
[1] = tested on: preweaned mice; settings: cited from earlier work; for effect on carcinogenic activity of safarole, tannic acid or methylcholantrene: fed to injected mice; for tumor development / carcinogenic potency compared with methylcholantrene: injected, preweaned mice
[2] = 20 mg piperine daily for seven days, then 300 mg phenytoin; cited from earlier work
[3] = cited from earlier work
[4] = with piperine, cited from earlier work
[5] = Blood levels of vitamin A (retinol) before and after 14 days supplementation; type: in vivo, human; settings: 5 mg piperine with beta-carotene, in words
Method: Piperine known under the trademark Bioperine® consisting of 98% piperine has been evaluated in a nutrient bioavailability experiment.
A dose of 5 mg of piperine, and up to 15 mg, would most likely not interfere with the metabolism of a majority of drugs as previously discussed. […] Retinol, or vitamin A, is a product of metabolic conversion of beta-carotene, and its blood levels would likely be affected by enzymatic inhibition/stimulation with piperine.
Values of Vitamin A (retinol) before treatment and after
14 days supplementation with Bioperine ®

[6] = Margin of bioenhancing dose of piperine versus LD50 in rodents; set-up: species or system mice and rats; settings: in vivo; maximum approx. 15 mg/person/day, no more than 20 mg/day; read-out: bioenhancing dose less than LD50 dose
Method: Black pepper contains approximately 5-9% piperine and is listed by the FDA as an herb which is generally recognized as safe (GRAS) for its intended use as spice, seasoning, or flavoring.
The dose of piperine considered as bioenhancing absorption of nutrients is considered 0.0004-0.15 mg of piperine/kg body weight.

[7] = tested on: Rat; settings: cited from earlier work
[8] = co-administered drugs; cited from earlier work
[9] = tested on: rats; settings: cited from earlier work
[10] = tested on: laboratory animals; settings: broad range of doses; cited from earlier work
[11] = tested on: Mice; settings: cited from earlier work
[12] = tested on: V-79 lung fibroblasts; settings: in vitro; cited from earlier work
[13] = tested on: benzo(a)pyrene activation; settings: cited from earlier work
[14] = tested on: rats; settings: 100 mg and 800 mg/kg intragastric; 10 mg/kg and 100 mg/kg intra-peritoneal; cited from earlier work
[15] = tested on: mice treated with potent hepatotoxins and carbon tetrachloride; settings: in vivo and in vitro experiments; cited from earlier work
[16] = tested on: mice treated with potent hepatotoxins tetra-hydroperoxide and carbon tetrachloride; settings: cited from earlier work
[17] = tested on: rats injected with carageenin; settings: cited from earlier work
[18] = tested on: cytochrome P-450; settings: cited from earlier work
[19] = 5 to 20 times the average daily human intake
[20] = dose that significantly inhibited pregnancy
[21] = in vivo and in vitro experiments

C=C(C)[C@H]1CC=C(C)CC1 [d-limonene]
effect on carcinogenic activity of safarole, tannic acid or methylcholantrene [1]: reduced their carcinogenic activity

Cc1ccc2cc3c(ccc4ccccc43)c3c2c1CC3 [methylcholantrene]
tumor development [1]: developed tumors

O=C1NC(=O)C(c2ccccc2)(c2ccccc2)N1 [phenytoin]
blood concentration of phenytoin [2]: increased blood levels; also recorded: rose more rapidly
elimination of phenytoin [2]: dramatically prolonged the elimination time; also recorded: significantly slower elimination
maximum concentration of phenytoin [2]: significantly higher concentrations
time to maximum concentration of phenytoin [2]: shorter time

Cn1c(=O)c2[nH]cnc2n(C)c1=O [theophylline]
maximum concentration of theophylline, increase ([3]; 20 mg piperine daily for seven days, then 150 mg theophylline): 1.5 times higher
blood levels of theophylline ([3]; 20 mg piperine for seven days prior): increased blood levels

CC(C)NCC(O)COc1cccc2ccccc12 (stereo not shown) [propranolol]
elimination rate of propranolol ([4]; 3 mg dose): did not affect the elimination rate; also recorded: without slowing down the drug elimination rate
maximum blood concentration increase of propranolol ([4]; 3 mg dose): two fold; also recorded: doubling its blood levels
plasma / blood levels of propranolol [4]: significant increase in plasma levels; also recorded: significant increase in blood levels

O=C(/C=C/C=C/c1ccc2c(c1)OCO2)N1CCCCC1 [piperine]
blood levels of retinol / conversion of beta-carotene to vitamin A [5]: remained unchanged throughout the experiment; also recorded: does not elevate the conversion of beta-carotene to vitamin A
selectivity ratio [6]: ≤ 40000
LD50 ([7]; Rat weanling): 585.0 mg/kg body weight
LD50 ([7]; Rat): 514.0 mg/kg body weight and 800.0 mg/kg body weight
bioavailability of a number of drugs [8]: increase the bioavailability, blood levels and efficacy of a number of drugs
clinical symptoms [9, 19]: no clinical symptoms
food intake, growth pattern, organ weights [9, 19]: did not affect
blood chemistry (RBC, WBC, differential count, hemoglobin, serum proteins, albumins, globulins, glucose, cholesterol, aminotransferases, phosphatases) ([9]; treated vs untreated animals): no alterations
general growth pattern, body to organ weight ratio, clinical symptomatology and blood chemistry [10]: does not cause any abnormality
anti-fertility activity ([11]; 5 mg/kg body weight/day): no anti-fertility activity
inhibition of pregnancy ([11]; 12.5 mg/kg body weight, twice a day, intraperitoneal or oral): inhibited significantly pregnancy in mice
effectiveness at pre- and post-implantation periods ([11]; 12.5 mg/kg body weight, twice a day): effective at both pre- and post-implantation periods
clinically noticeable toxicity [11, 20]: did not produce clinically noticeable toxicity
effect on estrogen cycle [11, 20]: did not interfere with the estrogen cycle
uterotropic effect [11, 20]: did not show uterotropic effect
effect on benzo(a)pyrene cytotoxicity [12]: significantly enhanced benzo(a)pyrene cytotoxicity
effect on benzo(a)pyrene cytotoxicity ([13]; by lowering benzo(a)pyrene-oxide production): decreasing benzo(a)pyrene cytotoxicity
effect on benzo(a)pyrene activation (benzo(a)pyrene-oxide production) [13]: inhibit benzo(a)pyrene activation
serum sorbitol dehydrogenase (SDH), ALT, AST and isocitrate dehydrogenase (ICD) [14]: None of the treatment regiments altered significantly
enzymatic leakage of glutamate pyruvate transaminase and alkaline phosphatase [15]: reduced enzymatic leakage
hepatoprotective action [16, 21]: hepatoprotective action
lipid peroxidation [16, 21]: decrease in lipid peroxidation
reduced glutathione and total thiols in the liver ([16]; mouse, in vivo): prevented depletion of reduced glutathione and total thiols
acid phosphatase levels [17]: leveling off increased levels of acid phosphatase
lipid peroxide formation [17]: inhibiting lipid peroxide formation
decrease of cytochrome P-450 content of hepatic microsomes ([18]; treatment of rats): approximately 20%
effect on carcinogenic activity of safarole, tannic acid or methylcholantrene [1]: did not modify their carcinogenic activity

O=C(OC[C@H]1O[C@@H](OC(=O)c2cc(O)c(O)c(OC(=O)c3cc(O)c(O)c(O)c3)c2)[C@H](OC(=O)c2cc(O)c(O)c(OC(=O)c3cc(O)c(O)c(O)c3)c2)[C@@H](OC(=O)c2cc(O)c(O)c(OC(=O)c3cc(O)c(O)c(O)c3)c2)[C@@H]1OC(=O)c1cc(O)c(O)c(OC(=O)c2cc(O)c(O)c(O)c2)c1)c1cc(O)c(O)c(OC(=O)c2cc(O)c(O)c(O)c2)c1 [tannic acid]
carcinogenic potency compared with methylcholantrene [1]: weak carcinogens
tumor development [1]: developed tumors

C=CCc1ccc2c(c1)OCO2 [safarole]
increase of cytochrome P-450 content of hepatic microsomes ([18]; pretreatment of rats): about 50%
carcinogenic potency compared with methylcholantrene [1]: weak carcinogens
tumor development [1]: developed tumors
